Assay results taken from patent US20080026417A1, “ASSAYS FOR TRICHOMONAL AND OTHER HYDROLASES” (priority 2002, published 2008).
“And” between values parts separate entries of the source, which are not always exact repeats. Identical values can stand only once.

Assays:
trichomonal hydrolases [1] = experiment: Experiment 13: hydrolysis of peptide substrates by trichomonal hydrolases at low pH, no vaginal fluid; type: biochemical, Trichomonas vaginalis; design: key: −: No red color produced; +: Clearly visible red color produced; ++: Moderately intense red color produced; +++: Very intense red color produced; settings: without vaginal fluid; threonine buffer pH 2.4; 2 mM substrate solution; 10 min 25° C.; Fast Garnet
Summary of the method: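 Peptide substrates incubated in duplicate for 10 min at 25° C. with trichomonal hydrolase diluted 1:9 in 2 mM L-cysteine; negative controls received L-cysteine alone. SDS/acetate and Fast Garnet added, and color visually scored after 5 min on a color scale.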

trichomonal hydrolases [2] = experiment: Experiment 17: effect of amount of VLR-MNA on color produced by trichomonal hydrolases on swabs; type: biochemical, Trichomonas vaginalis; settings: 0-9 scale
Protocol: Solution A, containing 10% v/v trichomonal hydrolases and 2 mM L-cysteine, was prepared by mixing 20 μL of trichomonal hydrolases with 4 μl of 100 mM L-cysteine and 176 μL of water, and Solution B, containing 20% v/v trichomonal hydrolases, 5% v/v normal vaginal fluid supernatant and 2 mM L-cysteine, was prepared by mixing 40 μL of trichomonal hydrolases with 10 μL of normal vaginal fluid supernatant, 4 μL of 100 mM L-cysteine and […]. Several 35 μL drops each of Solution A, Solution B, and threonine buffer were individually pipetted onto discrete, separated areas on a sheet of Mylar. Individual cotton swabs were rubbed on a drop of either Solution A or Solution B, then on one, two or three dots of substrate, and then on a drop of buffer. After ten minutes, each swab was rubbed on an indicator film. The intensity of pink color that developed on each swab after thirty seconds was visually scored in 0.5 unit increments using the 0-9 color scale presented in Table 11.1.

trichomonal hydrolases [3] = experiment: Experiment 14: substrate comparison on swabs with vaginal fluid plus trichomonal hydrolases at low pH; type: biochemical, Trichomonas vaginalis; settings: threonine pH 2.4, 0-9 scale
Protocol: For each pair of vaginal fluid specimens from a donor, one swab was rubbed on one substrate film and the other swab was rubbed on a different substrate film; two substrates were compared at a time. The concentrations of the substrates varied from 150 mM to 320 mM in the solutions used to make the substrate films, but each specific comparison matched equimolar concentrations of substrates (as specified in Tables 14.1, 14.2, and 14.3 below). In the swabs, the substrate was diluted by vaginal fluid and buffer, and the final concentration of substrate in the swab tip was estimated to be 1/60 of the concentration of substrate in the solutions used to make the films. Immediately after each swab was rubbed on a substrate film, a 35-μL drop of threonine buffer was applied to the plastic where the substrate film had been, and the swab was rubbed on the same spot again until the buffer was absorbed into the swab. The swabs were left lying on the plastic for ten minutes, then each swab was rubbed on a Fast Red or Fast Garnet film. For the comparisons between ZLR and ZVR, and between VLR-MNA and ZRRR-MNA, films made with 10 mM Fast Garnet were used; for the comparison between ZVR and VLR-MNA, films made with 70 mM Fast Red were used. The intensity of pink color that developed on each swab after two minutes was visually scored using the 0-9 color scale presented in Table 11.1 above; fractional scores such as 1.3 were used when color intensities between swabs differed only slightly. In this part of the experiment, 20 μL of trichomonal hydrolases was applied to the tip of each swab containing vaginal fluid just prior to running the assay. Otherwise, the procedure was exactly the same as for the swabs containing only vaginal fluid.

[4] = test system: endogenous hydrolases present in normal vaginal fluid; experiment: Experiment 14: substrate comparison on swabs with normal vaginal fluid at low pH; type: biochemical, human; design: key: 0: Colorless or yellow - no pink color; trace: Peach or orange; 1: Faint pink; 2-8: Intermediate intensities of pink; 8: Very intense pink/red; settings: Normal (n = 3); 150 mM substrate film solution; threonine pH 2.4; Fast Red; 0-9 scale
Protocol: Mixtures were made of the 400 mM substrate stock solutions, 25% hydroxy-propylcellulose solution, 200 mM L-cysteine, along with additional ethanol to a final concentration of 150-320 mM substrate, 20 mM L-cysteine, and 2-5% hydroxypropyl-cellulose. Substrate films were made by pipetting 1 μL of a mixture over a circular area approximately […] in diameter on a sheet of Mylar, and drying under a stream of dry nitrogen. The dried films were stored in a container with desiccant until used.
For each pair of vaginal fluid specimens from a donor, one swab was rubbed on one substrate film and the other swab was rubbed on a different substrate film; two substrates were compared at a time. The concentrations of the substrates varied from 150 mM to 320 mM in the solutions used to make the substrate films, but each specific comparison matched equimolar concentrations of substrates (as specified in Tables 14.1, 14.2, and 14.3 below). […] The intensity of pink color that developed on each swab after two minutes was visually scored using the 0-9 color scale presented in Table 11.1 above; fractional scores such as 1.3 were used when color intensities between swabs differed only slightly.

trichomonal hydrolases [5] = experiment: Experiment 13: hydrolysis of peptide substrates by trichomonal hydrolases at low pH in vaginal fluid supernatant; type: biochemical, Trichomonas vaginalis; design: key: −: No red color produced; +: Clearly visible red color produced; ++: Moderately intense red color produced; +++: Very intense red color produced; settings: Fast Garnet
Protocol: Forty μL of each substrate was pipetted into duplicate wells of a microtiter plate. The plate was covered with tape, placed into a 25° C. incubator, and allowed to warm. A diluted enzyme mixture was prepared by mixing one part (v/v) freshly-thawed trichomonal hydrolase solution to nine parts 2 mM L-cysteine solution. Forty μL of this mixture was added to one well of each pair of duplicate wells. For negative controls, 40 μL of 2 mM L-cysteine was added to the second well in each pair of duplicate wells. The plate was returned to the incubator and incubated for ten minutes. Forty μL of SDS/acetate solution was added to each well, followed by 40 μL of Fast Garnet solution. The intensity of color that developed in each well after five minutes was visually scored using the color scale presented in Table 13.1.
Of the nine substrates hydrolyzed by trichomonal hydrolases to produce an intense pink color (scoring ++ or +++) in the absence of vaginal fluid supernatant, only four produced intense pink color when vaginal fluid supernatant was present.

trichomonal hydrolases [6] = experiment: Experiment 11: hydrolysis of ZRRR-MNA by trichomonal hydrolases at pH 1.9-3.4, read on swab; type: biochemical, Trichomonas vaginalis; settings: Fast Red RL, 0-9 scale
Protocol: The 200 mM ZRRR-MNA solution was mixed with 25% hydroxypropylcellulose solution and additional ethanol to a final concentration of 80 mM ZRRR-MNA and 5% hydroxypropyl-cellulose. Substrate films were made by pipetting 1 μL of a mixture over a circular area approximately ¼-inch in diameter on a sheet of Mylar, and drying under a stream of dry nitrogen. An 80-μL aliquot of a malic acid buffer solution, at each pH listed above, was pipetted into each of eight separate round-bottom wells on a microtiter plate. Eighty μL of 10% trichomonal hydrolase solution was added to each well and mixed thoroughly. Half of the volume in each well (80 μL) was then transferred to a second set of eight wells, into which the swabs were then inserted. After the 80 μL of liquid was absorbed from each well into the respective swab, each swab was rubbed on a substrate film. Ten minutes after the swabs were exposed to substrate, each swab was rubbed on an indicator (Fast Red) film. The intensity of pink color that developed on each swab after one minute was visually scored in 0.5 unit increments using the 0-9 color scale presented in Table 11.1 below. To determine the final pH of the eight mixtures of trichomonal hydrolases and buffer, the pH of the liquid remaining in the first set of eight wells was measured using a pH meter. The experiment was repeated omitting the lowest pH and highest pH wells.

[7] = Hydrolases added (n = 2), 150 mM substrate film solution, Fast Red
[8] = Hydrolases added (n = 5), 200 mM substrate film solution, Fast Garnet

Row | SMILES | Color Score (trichomonal hydrolases [1]) | Color Score (trichomonal hydrolases [2]; Solution A (10% trichomonal hydrolases, no vaginal fluid), One dot of Substrate) | Color Score (trichomonal hydrolases [2]; Solution A, Three dots of Substrate) | Color Score (trichomonal hydrolases [2]; Solution A, Two dots of Substrate) | Color Score (trichomonal hydrolases [2]; Solution B (20% trichomonal hydrolases, 5% normal vaginal fluid supernatant), One dot of Substrate) | Color Score (trichomonal hydrolases [2]; Solution B, Three dots of Substrate) | Color Score (trichomonal hydrolases [2]; Solution B, Two dots of Substrate) | Color Score (trichomonal hydrolases [3]; [7]) | Color Score (trichomonal hydrolases [3]; [8]) | Color Score [4] | Color Score (trichomonal hydrolases [5]) | Color Scores (trichomonal hydrolases [6]; malic acid pH 1.3 / final pH in wells 1.9) | Color Scores (trichomonal hydrolases [6]; malic acid pH 1.6 / final pH 2.1, 1st experiment and duplicate) | Color Scores (trichomonal hydrolases [6]; malic acid pH 1.9 / final pH 2.3, 1st experiment and duplicate) | Color Scores (trichomonal hydrolases [6]; malic acid pH 2.2 / final pH 2.4, 1st experiment and duplicate) | Color Scores (trichomonal hydrolases [6]; malic acid pH 2.5 / final pH 2.6, 1st experiment and duplicate) | Color Scores (trichomonal hydrolases [6]; malic acid pH 2.8 / final pH 2.9, 1st experiment and duplicate) | Color Scores (trichomonal hydrolases [6]; malic acid pH 3.1 / final pH 3.2, 1st experiment and duplicate) | Color Scores (trichomonal hydrolases [6]; malic acid pH 3.4 / final pH 3.4) | Color Score (trichomonal hydrolases [3]; Hydrolases added (n = 4), 320 mM substrate film solution, Fast Garnet)
1 | COc1cc(NC(=O)C(CCCN=C(N)N)NC(=O)C(CC(C)C)NC(=O)C(N)C(C)C)cc2ccccc12 [VLR-MNA, D-Val-Leu-Arg-MNA] | +++ | 5.5 | 9 | 7 | 2.5 | 5.5 | 4 | 2 to 2.5 | 1 to 4 | 0 | +++ | – | – | – | – | – | – | – | – | –
2 | CC(=O)O.COc1cc(NC(=O)[C@H](CCCN=C(N)N)NC(=O)[C@H](CCCN=C(N)N)NC(=O)[C@H](CCCN=C(N)N)NC(=O)OCc2ccccc2)cc2ccccc12 [ZRRR-MNA, CBZ-Arg-Arg-Arg-MNA] | +++ | – | – | – | – | – | – | – | 1 to 4 | – | ++ | 2 | 4.5 | 5 | 5.5 and 6 | 5.5 and 5 | 5 and 3.5 | 4.5 and 3 | 3 | –
3 | COc1cc(NC(=O)[C@H](CCCNC(=N)N)NC(=O)[C@@H](NC(=O)OCc2ccccc2)C(C)C)cc2ccccc12 [ZVR, CBZ-Val-Arg-MNA] | +++ | – | – | – | – | – | – | 4.5 to 5 | – | 2.5 to 3 | ++ | – | – | – | – | – | – | – | – | 1 to 5
